# Source: patent US20150159222A1, “MARKERS ASSOCIATED WITH HUMAN DOUBLE MINUTE 2 INHIBITORS” (NOVARTIS AG, priority 2012, published 2015)
# Columns and labels:
# SJSA-1 osteosarcoma line = conditions: SJSA-1, amplified copies of the MDM2 gene; cited from earlier work
# SJSA-1 cell line = conditions: SJSA-1 xenografts in mouse; cited from earlier work
# human normal fibroblasts = conditions: cited from earlier work
# mouse normal fibroblasts = conditions: cited from earlier work
# [1] = system: p53 wild-type (SJSA-1 and HCT116 p53wt/wt cells) and p53 mutant cell lines (SAOS2 and HCT116 p53-/- cells); test: Cell proliferation inhibition assay (YOPRO); assay type: cell-based; conditions: 72 hours; p53 wild-type vs p53 mutant cell lines
# Procedure: Lucern, Switzerland). Briefly, cells are plated in 96-well plates overnight at 37° C. and are treated with increasing concentrations of MDM2i(1) or MDM2i(2) for 72 hours. Cell concentration in each well is then determined using the DNA-interacting fluorescent dye YOPRO according to the manufacturer's instructions and the fluorescent signal is measured using a Gemini-EM standard plate reader (Molecular Devices: Sunnyvale, Calif., USA).
# C3A cells = test: Western blot of p53 pathway proteins in C3A cells; assay type: cell-based; conditions: 4 hours
# Procedure: (§1) That the biomarkers in Table 2/FIG. 3 are reflective of a functional p53 pathway in MDM2i sensitive cells is verified in FIG. 4. […]. Whole cell lysates were prepared using a cell lysis buffer containing 50 mM Tris-HCl pH 7.5, 120 mM NaCl, 1 mM EDTA, 6 mM EGTA pH 8.5, 1% NP-40, 20 mM NaF, 1 mM PMSF and 0.5 mM Na-Vanadat, proteins were separated on NuPAGE 4-12% Bis-Tris Gel (Invitrogen # NP0322BOX, Lucerne; Switzerland), transferred onto Nitrocellulose Protran® BA 85 membranes (Whatman #10 401 261: Piscataway, N.J., USA) at 1.5 mA/cm^2 membrane for 2 h using a semi-dry blotting system, and immunoblotted with either an anti-phospho-p53 (Ser^15) (1/1000; Cell Signaling Technology #9284: Beverly, Mass., USA) rabbit polyclonal antibody, or an anti-p53 (Ab-6) (Pantropic, clone DO-1,) (1/1000; Calbiochem # OP43 San Diego, Calif., USA), an anti-MDM2 (Ab-1, clone IF2) (1/1000; Calbiochem # OP46), an anti-p21^WAF1(Ab-1, clone EA10) (1/500; Calbiochem # OP64: San Diego, Calif., USA) or an anti-a-Tubulin (Sigma # T5168: St. Louis, Mo., USA) mouse monoclonal antibodies, as indicated. […].
# COLO 792 cells = test: Western blot of p53 pathway proteins in COLO 792 cells; assay type: cell-based; conditions: 4 hours
# Procedure: as §1
# [2] = system: SJSA-1 osteosarcoma cells; test: SJSA-1 xenograft tumor growth; assay type: in vivo, Harlan nude mice; conditions: for T/C: 10-day treatment
# Procedure: To further validate the predictive biomarkers disclosed in FIG. 3, in vivo human xenograft models either from human primary samples or from cell lines were directly injected and grown in tumors subcutaneously in mice and then assessed for MDM2i sensitivity. All the animals were allowed to adapt for 4 days and housed in a pathogen-controlled environment (5 mice/Type III cage) with access to food and water ad libitum. Animals were identified with transponders. Studies were performed according to procedures covered by permit number 1975 issued by the Kantonales Veterinaramt Basel-Stadt and strictly adhered to the Eidgenössisches Tierschutzgesetz and the Eidgenössische Tierschutzverordnung. Subcutaneous tumors were induced by concentrating 3.0×10^6 SJSA-1 osteosarcoma cells in 100 μl of PBS (without Ca^2+ and Mg^2+) and injecting in the right flank of Harlan nude mice. The administration of MDM2i began 12-14 days post cell injection. MDM2i was prepared immediately before each administration. MDM2i compounds were dissolved in 0.5% HPMC (hydroxypropylmethylcellulose) and were injected daily (q24h) at 25, 50 or 100 mg/kg. Tumor volumes (TVol), determined from caliper measurements (using the formula l×w×h×π/6) were measured three times per week. Tumor response was quantified by the change in tumor volume (endpoint minus starting value in mm^3) as the T/C, i.e.
# In the case of a tumor regression, the tumor response was quantified by the percentage of regression of the starting TVoI, i.e.
# The body-weight (BW) of the mice was measured three times per week allowing calculation at any particular time-point relative to the day of initiation of treatment (day 0) of both the percentage change in BW (Δ % BW). […].
# p21(CDKN1A) [3] = test: p21(CDKN1A) mRNA in SJSA-1 xenograft tumors (qRT-PCR); assay type: in vivo, Harlan nude mice
# Procedure: Briefly, total RNA was purified from cell pellets using the QIAshredder® (79654, Qiagen:Valencia Calif., USA) and RNeasy Mini Kit® (74106, Qiagen: Valencia Calif., USA) according to the manufacturer's instructions, with the exception that no DNA digestion was performed. Total RNA was eluted with 50 μL of RNase-free water. Total RNA was quantitated using the spectrophotometer ND-1000 Nanodrop® (Wilmington Del., USA). The qRT-PCR (Quantitative Reverse Transcriptase Polymerase Chain Reaction) was set up in triplicate per sample using the One-Step RT qPCR Master Mix Plus (RT-QPRT-032X, Eurogentec: Seraing, Belgium), with either control primers and primers for human p21(CDKN1A) (Hs00355782_m1, Applied Biosystems: Carlsbad Calif., USA) or mouse p21(CDKN1A) (Mm00432448_m1, Applied Biosystems: Carlsbad Calif., USA), namely TaqMan Gene Expression kit assays (20× probe dye FAM™ (or VIC)-TAMRA (or MGB); Applied Biosystems: Carlsbad Calif., USA). […] The number of cycles (CT) was determined, 2^−CT values were calculated, and the value normalized by dividing with the 2^−CT value obtained from the GAPDH control. Fold increase over control (i.e. DMSO- or vehicle-treated animals) was calculated and plotted in the bar graph.
# p21(CDKN1A) [4] = test: p21(CDKN1A) protein in SJSA-1 xenograft tumors (immunohistochemistry); assay type: in vivo, Harlan nude mice
# Procedure: SJSA-1 xenograft tumors were collected and a 3-4 mm slice out of the middle of the tumor was removed, transferred into pre-labelled histo-cassettes and immersion-fixed in neutral buffered formalin (NBF) 10% (v/v) (pH 6.8-7.2) (J. T. Baker, Winter Garden, Fla., USA), pre-cooled at 4° C. Tumors were then fixed at room temperature for 24 hours, followed by processing in the TPC 15Duo (Tissue Processing Center, Medite) for paraffinization. Subsequently, the tumor slices were embedded in paraffin and from each paraffin block several 3 μm thick sections were cut on a rotary microtome (Mikrom International AG, Switzerland), spread in a 48° C. water-bath, mounted on glass slides (SuperFrost Plus, Thermo Scientific:Waltham Mass., USA), and dried in an oven either at 37° C. overnight or at 60° C. for 30 min. Dry tissue section were processed for immunohistochemistry (IHC) staining. p21(CDKN1A) immunohistochemistry has been performed using the mouse monoclonal antibody clone SX118 from Dako (Cat. No. M7202 Dako: Carpenteria Calif., USA) at a dilution of 1:50. Immunohistochemistry has been performed on a Ventana Discovery XT automated immunostainer using the N-Histofine Mousestain Kit (Nichirei Bioscience Inc, Japan) in combination with the DABMap Kit chromogen system, omitting the SA-HRP solution (Ventana/Roche Diagnostics GmbH, Mannheim, Germany). […]
# CCLE cell lines = test: Chemical sensitivity of the CCLE cell line panel; assay type: cell-based
# Procedure: […]. The cell line panel is the one covered by the Cancer Cell Line Encyclopedia (CCLE) initiative (Barretina J., Caponigro G., Stransky N., Venkatesan K., et al. The Cancer Cell Line Encyclopedia enables predictive modeling of anticancer drug sensitivity. Nature 483:603-7, 2012). A detailed genomic, genetic and pharmacologic characterization was conducted on the CCLE cell lines.
# p53 mutation status in CCLE cell lines is taken from a data source of gene-level genetic alterations, for example, point-mutations, insertions, deletions and complex genetic alterations, compiled from the Sanger center COSMIC data and internal sources including Exome Capture Sequencing. This comprises data from approximately 1,600 cancer-related genes over the CCLE cell lines.
# […]. […] From such in vitro chemical sensitivity data, the prediction that a cell would be sensitive to an MDM2i treatment was estimated to be 13%. […].
# [5] = C3A cells, increasing concentrations
# [6] = COLO 792 cells, increasing concentrations
Compound,proliferation and apoptosis (SJSA-1 osteosarcoma line),reduction of xenograft growth (SJSA-1 cell line) [%],proliferation and viability of non-cancerous cells (human normal fibroblasts),proliferation and viability of non-cancerous cells (mouse normal fibroblasts),tumor cell proliferation [1],p53 protein levels (C3A cells; [5]),phospho-p53 (C3A cells; [5]),expression of p53 target genes p21(CDKN1A) and MDM2 (C3A cells; C3A sensitive cells),p53 protein levels (COLO 792 cells; [6]),phospho-p53 (COLO 792 cells; [6]),expression of p53 target genes p21(CDKN1A) and MDM2 (COLO 792 cells; COLO-792 insensitive cell line),T/C ([2]; 25 mg/kg q24h) [%],T/C ([2]; 50 mg/kg q24h) [%],tumor regression ([2]; 100 mg/kg q24h for 10 days) [%],p21(CDKN1A) mRNA levels in tumors (p21(CDKN1A) [3]),p21(CDKN1A) protein levels in tumors (p21(CDKN1A) [4]),number of insensitive cell lines (CCLE cell lines; CCLE panel),number of sensitive cell lines (CCLE cell lines; CCLE panel),sensitivity of p53 mutated cell lines (CCLE cell lines; p53 mutated CCLE cell lines),sensitivity of p53 wild type cell lines (CCLE cell lines; p53 wild type CCLE cell lines)
COc1ccc(C2=N[C@@H](c3ccc(Cl)cc3)[C@@H](c3ccc(Cl)cc3)N2C(=O)N2CCNC(=O)C2)c(OC(C)C)c1 [Nutlin-3],reduced proliferation and increased apoptosis,90,"the proliferation of the cells was slowed, they retained their viability","the proliferation of the cells was slowed, they retained their viability",,,,,,,,,,,,,,,,
COc1cc2c(cc1OC(C)C)[C@H](c1ccc(Cl)cc1)N(c1ccc(N(C)C[C@H]3CC[C@H](N4CCN(C)C(=O)C4)CC3)cc1)C(=O)C2 [MDM2i(1)],,,,,hampering tumor cell proliferation in a p53-dependent manner,induces stabilization of p53 protein levels,no significant increase of phospho-p53,induces a strong de novo expression of both p53 target genes p21(CDKN1A) and MDM2,induces stabilization of p53 protein levels,no significant increase of phospho-p53,not in COLO-792 insensitive cell line,50,3,65,significant dose-dependent induction of p21(CDKN1A) mRNA levels in tumors,significant dose-dependent induction of p21(CDKN1A) protein levels in tumors,,,,
COc1cc2c(cc1OC(C)C)[C@H](c1ccc(Cl)cc1)N(c1ccc(N(C)C[C@H]3CC[C@H](N4CCNC(=O)C4)CC3)cc1)C(=O)C2 [MDM2i(2)],,,,,hampering tumor cell proliferation in a p53-dependent manner,,,,,,,,,,,,309,47,majority of p53 mutated cell lines are found insensitive,more than two-third of p53 wild type cell lines are sensitive
